From ChEMBL document CHEMBL1140103, “Synthesis and evaluation of [N-methyl-11C]N-desmethyl-loperamide as a new and improved PET radiotracer for imaging P-gp function” (J Med Chem, 2008)

How the values were obtained:
[1] = biological target: T1, Alpha-1A adrenergic receptor (Homo sapiens, UniProt P35348); experiment: Displacement of [125I]HEAT from adrenergic alpha1A receptor
T1 sequence (P35348 whole entry): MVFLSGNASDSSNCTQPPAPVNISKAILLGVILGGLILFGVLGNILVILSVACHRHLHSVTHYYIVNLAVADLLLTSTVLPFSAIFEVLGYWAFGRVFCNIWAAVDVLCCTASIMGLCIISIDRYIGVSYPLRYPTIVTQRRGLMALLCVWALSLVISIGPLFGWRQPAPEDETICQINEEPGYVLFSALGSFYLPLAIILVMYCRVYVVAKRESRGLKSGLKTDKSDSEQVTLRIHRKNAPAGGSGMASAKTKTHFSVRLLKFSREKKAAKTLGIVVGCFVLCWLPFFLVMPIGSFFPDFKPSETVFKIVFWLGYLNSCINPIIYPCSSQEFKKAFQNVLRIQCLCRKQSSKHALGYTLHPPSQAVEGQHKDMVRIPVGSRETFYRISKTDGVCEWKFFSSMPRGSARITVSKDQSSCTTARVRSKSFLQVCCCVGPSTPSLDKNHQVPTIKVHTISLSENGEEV

[2] = biological target: T2, Alpha-2A adrenergic receptor (Homo sapiens, UniProt P08913); experiment: Displacement of [125I]HEAT from adrenergic alpha2A receptor
T2 sequence (P08913 whole entry): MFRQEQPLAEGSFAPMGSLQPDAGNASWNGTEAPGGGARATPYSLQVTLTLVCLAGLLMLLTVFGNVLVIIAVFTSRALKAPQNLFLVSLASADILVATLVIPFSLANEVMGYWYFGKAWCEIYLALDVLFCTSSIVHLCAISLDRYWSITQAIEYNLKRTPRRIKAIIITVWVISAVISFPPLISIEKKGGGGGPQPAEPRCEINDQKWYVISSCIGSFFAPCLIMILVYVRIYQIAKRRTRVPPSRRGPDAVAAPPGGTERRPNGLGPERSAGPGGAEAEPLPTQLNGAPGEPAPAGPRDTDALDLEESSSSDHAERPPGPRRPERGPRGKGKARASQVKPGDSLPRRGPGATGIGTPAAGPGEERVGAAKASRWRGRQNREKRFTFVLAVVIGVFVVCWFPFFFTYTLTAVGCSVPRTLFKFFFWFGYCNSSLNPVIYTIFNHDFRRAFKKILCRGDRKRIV

[3] = biological target: T3, Alpha-2C adrenergic receptor (Homo sapiens, UniProt P18825); experiment: Displacement of [125I]HEAT from adrenergic Alpha-2C receptor
T3 sequence (P18825 whole entry): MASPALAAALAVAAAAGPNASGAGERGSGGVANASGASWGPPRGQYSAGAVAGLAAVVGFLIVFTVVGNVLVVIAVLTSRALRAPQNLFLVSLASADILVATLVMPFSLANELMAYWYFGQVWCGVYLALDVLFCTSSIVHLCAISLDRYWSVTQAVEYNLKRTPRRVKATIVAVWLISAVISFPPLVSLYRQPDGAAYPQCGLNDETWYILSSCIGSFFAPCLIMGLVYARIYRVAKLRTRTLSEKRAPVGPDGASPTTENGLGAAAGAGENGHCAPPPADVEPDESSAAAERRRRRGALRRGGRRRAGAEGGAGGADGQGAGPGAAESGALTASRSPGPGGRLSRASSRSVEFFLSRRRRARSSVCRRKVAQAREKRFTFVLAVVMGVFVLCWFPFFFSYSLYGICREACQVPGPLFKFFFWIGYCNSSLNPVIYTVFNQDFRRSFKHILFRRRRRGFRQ

[4] = biological target: T4, Alpha-2B adrenergic receptor (Homo sapiens, UniProt P18089); experiment: Displacement of [125I]HEAT from adrenergic alpha2B receptor
T4 sequence (P18089 whole entry): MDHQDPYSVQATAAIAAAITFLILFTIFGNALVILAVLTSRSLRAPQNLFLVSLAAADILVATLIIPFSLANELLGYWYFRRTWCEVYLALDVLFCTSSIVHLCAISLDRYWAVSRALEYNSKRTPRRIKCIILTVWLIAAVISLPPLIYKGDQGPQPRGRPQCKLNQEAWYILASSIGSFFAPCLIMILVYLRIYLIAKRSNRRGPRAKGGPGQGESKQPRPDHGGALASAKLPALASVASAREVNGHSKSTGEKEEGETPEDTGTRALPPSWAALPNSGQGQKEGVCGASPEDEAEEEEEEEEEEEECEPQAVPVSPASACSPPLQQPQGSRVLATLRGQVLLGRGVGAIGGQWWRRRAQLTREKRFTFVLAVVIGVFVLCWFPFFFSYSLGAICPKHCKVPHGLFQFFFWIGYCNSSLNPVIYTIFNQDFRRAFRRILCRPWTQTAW

D(4) dopamine receptor = biological target: T5, D(4) dopamine receptor (Homo sapiens, UniProt P21917); experiment: Displacement of [3H]N-methylspiperone from dopamine D4 receptor
T5 sequence (P21917 whole entry): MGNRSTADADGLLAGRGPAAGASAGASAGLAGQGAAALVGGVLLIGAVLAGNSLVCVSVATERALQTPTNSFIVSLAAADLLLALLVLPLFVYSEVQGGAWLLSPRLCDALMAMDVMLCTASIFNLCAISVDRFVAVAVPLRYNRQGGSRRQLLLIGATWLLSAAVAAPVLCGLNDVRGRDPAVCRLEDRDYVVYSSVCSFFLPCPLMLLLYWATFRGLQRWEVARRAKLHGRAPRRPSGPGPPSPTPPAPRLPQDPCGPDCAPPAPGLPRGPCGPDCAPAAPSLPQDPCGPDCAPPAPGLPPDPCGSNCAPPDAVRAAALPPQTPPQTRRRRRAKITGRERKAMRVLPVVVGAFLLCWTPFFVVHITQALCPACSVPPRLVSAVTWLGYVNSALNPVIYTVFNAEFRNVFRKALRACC

Histamine H1 receptor = Histamine H1 receptor (Homo sapiens, UniProt P35367); experiment: Displacement of [3H]pyrilamine from human histamine H1 receptor
Histamine H2 receptor = Histamine H2 receptor (Homo sapiens, UniProt P25021); experiment: Displacement of [3H]tiotidine from human histamine H2 receptor
Histamine H3 receptor = Histamine H3 receptor (Homo sapiens, UniProt Q9Y5N1); experiment: Displacement of [3H]alpha-methylhistamine from human histamine H3 receptor
Mu-type opioid receptor = Mu-type opioid receptor (Homo sapiens, UniProt P35372); experiment: Displacement of [3H]DAMGO from mu opioid receptor
[5] = biological target: Sigma non-opioid intracellular receptor 1 (Rattus norvegicus, UniProt Q9R0C9); experiment: Displacement of [3H]Pentazocine from rat sigma 1 receptor in rat PC12 cells; type: cell-based, PC-12
[6] = Displacement of [3H]DTG from rat sigma 2 receptor in rat PC12 cells; type: cell-based; conditions: pc-12
[7] = biological target: Sodium-dependent serotonin transporter (Homo sapiens, UniProt P31645); experiment: Displacement of [3H]citalopram from human SERT
[8] = Dissociation constant, pKa of the compound; type: physicochemical
[9] = Lipophilicity, log D of the compound; type: physicochemical; conditions: octanol/water

Chain of Histamine H3 receptor (Q9Y5N1 whole entry): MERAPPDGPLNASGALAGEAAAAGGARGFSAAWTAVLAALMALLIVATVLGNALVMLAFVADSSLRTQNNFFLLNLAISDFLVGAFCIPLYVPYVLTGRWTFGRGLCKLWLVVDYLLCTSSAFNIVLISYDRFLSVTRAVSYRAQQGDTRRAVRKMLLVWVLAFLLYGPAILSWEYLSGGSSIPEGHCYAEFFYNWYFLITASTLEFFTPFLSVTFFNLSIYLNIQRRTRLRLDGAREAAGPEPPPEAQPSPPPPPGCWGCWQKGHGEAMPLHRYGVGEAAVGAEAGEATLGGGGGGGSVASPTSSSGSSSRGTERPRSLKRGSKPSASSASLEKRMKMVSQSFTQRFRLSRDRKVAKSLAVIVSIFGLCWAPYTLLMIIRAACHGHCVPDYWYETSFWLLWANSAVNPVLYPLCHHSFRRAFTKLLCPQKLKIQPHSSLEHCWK
Chain of Sigma non-opioid intracellular receptor 1 (Q9R0C9 whole entry): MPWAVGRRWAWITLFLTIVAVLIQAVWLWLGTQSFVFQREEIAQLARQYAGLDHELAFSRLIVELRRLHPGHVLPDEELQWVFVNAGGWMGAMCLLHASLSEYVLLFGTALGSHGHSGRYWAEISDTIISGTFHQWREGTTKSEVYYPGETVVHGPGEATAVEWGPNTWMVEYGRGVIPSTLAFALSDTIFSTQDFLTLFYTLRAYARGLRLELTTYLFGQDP
Chain of Histamine H1 receptor (P35367 whole entry): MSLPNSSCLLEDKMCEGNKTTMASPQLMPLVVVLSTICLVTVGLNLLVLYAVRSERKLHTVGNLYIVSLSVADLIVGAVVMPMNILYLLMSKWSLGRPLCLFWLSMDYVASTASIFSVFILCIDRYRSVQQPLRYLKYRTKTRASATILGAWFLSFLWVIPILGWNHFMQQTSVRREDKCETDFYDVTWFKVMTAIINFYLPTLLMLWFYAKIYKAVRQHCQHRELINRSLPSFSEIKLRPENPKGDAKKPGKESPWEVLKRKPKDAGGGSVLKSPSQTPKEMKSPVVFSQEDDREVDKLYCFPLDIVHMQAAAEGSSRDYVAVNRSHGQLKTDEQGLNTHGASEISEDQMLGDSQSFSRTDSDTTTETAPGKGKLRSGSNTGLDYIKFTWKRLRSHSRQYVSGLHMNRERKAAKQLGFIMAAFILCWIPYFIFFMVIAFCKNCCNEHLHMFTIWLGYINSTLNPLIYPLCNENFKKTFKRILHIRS
Chain of Sodium-dependent serotonin transporter (P31645 whole entry): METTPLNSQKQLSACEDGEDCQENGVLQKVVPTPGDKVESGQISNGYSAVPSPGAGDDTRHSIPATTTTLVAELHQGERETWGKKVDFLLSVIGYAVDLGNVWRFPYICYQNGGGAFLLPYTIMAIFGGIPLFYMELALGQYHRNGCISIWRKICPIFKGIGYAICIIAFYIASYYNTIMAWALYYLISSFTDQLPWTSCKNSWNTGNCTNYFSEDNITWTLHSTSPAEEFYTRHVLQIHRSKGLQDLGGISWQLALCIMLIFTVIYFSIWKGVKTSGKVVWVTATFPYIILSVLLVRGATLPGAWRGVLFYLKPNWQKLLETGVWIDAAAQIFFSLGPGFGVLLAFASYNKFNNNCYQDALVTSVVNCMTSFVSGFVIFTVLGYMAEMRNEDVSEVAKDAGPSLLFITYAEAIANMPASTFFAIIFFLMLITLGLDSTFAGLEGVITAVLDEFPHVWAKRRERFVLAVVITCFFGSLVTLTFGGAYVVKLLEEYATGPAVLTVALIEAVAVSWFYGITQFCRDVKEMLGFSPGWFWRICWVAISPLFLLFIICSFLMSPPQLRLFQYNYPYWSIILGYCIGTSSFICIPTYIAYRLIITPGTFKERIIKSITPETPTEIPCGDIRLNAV
Chain of Histamine H2 receptor (P25021 whole entry): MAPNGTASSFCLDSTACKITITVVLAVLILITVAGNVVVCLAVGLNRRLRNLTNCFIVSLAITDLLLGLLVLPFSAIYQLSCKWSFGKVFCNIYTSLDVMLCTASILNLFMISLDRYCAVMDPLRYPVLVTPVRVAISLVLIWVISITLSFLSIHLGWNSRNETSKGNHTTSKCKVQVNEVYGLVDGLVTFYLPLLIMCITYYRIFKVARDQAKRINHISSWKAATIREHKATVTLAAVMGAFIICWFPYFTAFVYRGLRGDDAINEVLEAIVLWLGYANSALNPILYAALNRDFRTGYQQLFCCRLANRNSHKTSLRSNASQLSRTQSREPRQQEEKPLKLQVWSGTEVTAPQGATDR
Chain of Mu-type opioid receptor (P35372 whole entry): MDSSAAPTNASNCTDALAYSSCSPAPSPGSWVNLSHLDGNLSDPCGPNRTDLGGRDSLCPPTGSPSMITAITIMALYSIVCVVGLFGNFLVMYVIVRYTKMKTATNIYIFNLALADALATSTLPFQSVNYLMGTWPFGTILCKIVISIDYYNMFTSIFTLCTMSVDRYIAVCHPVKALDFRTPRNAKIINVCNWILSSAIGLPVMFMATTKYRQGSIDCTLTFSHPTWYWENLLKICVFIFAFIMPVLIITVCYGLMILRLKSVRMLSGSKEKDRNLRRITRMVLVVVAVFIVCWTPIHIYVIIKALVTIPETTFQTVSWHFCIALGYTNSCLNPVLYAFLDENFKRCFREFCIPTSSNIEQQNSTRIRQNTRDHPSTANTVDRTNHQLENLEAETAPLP

Row | SMILES | Ki [1] | Ki [2] | Ki [3] | Ki [4] | Ki (D(4) dopamine receptor) | Ki (Histamine H1 receptor) | Ki (Histamine H2 receptor) | Ki (Histamine H3 receptor) | Ki (Mu-type opioid receptor) | Ki [5] | Ki [6] | Ki [7] | pKa [8] | logD [9] | pKa ([8]; read-out: pKa)
1 | CNC(=O)C(CCN1CCC(O)(c2ccc(Cl)cc2)CC1)(c1ccccc1)c1ccccc1 | 9.9 nM | 1 nM | 2.4 nM | 7 nM | 1.1 nM | 4.2 nM | 1.7 nM | 9.3 nM | 0.6 nM | 0.8 nM | 1.9 nM | 6.2 nM | 7.2 | – | –
2 | [11CH3]NC(=O)C(CCN1CCC(O)(c2ccc(Cl)cc2)CC1)(c1ccccc1)c1ccccc1 | – | – | – | – | – | – | – | – | – | – | – | – | – | 2.6 | 7.96
